# Experimental data reported in patent publication US20260174766A1, “COMBINATION OF MENIN INHIBITOR(S) AND IMMUNOPROTEASOME INHIBITOR(S) FOR TREATMENT OF LEUKEMIA” (Medizinische Hochschule Hannover, priority 2022, published 2026).
# Key:
# MLL-AF9 driven leukemia = experiment: MLL-AF9 driven murine leukemia, in vivo PR-957 treatment of primary recipients; parameters: species or system mouse
# Protocol: For induction of MLL-AF9 (MA9) driven leukemia we used established retroviral MSCV-GFP-based vectors to express MA9 in hematopoietic stem- and progenitor cells (Lineage-negative, Sca1-positive, Kit-positive [LSK] cells). In detail, bone marrow (BM) of LMP7+/+ or LMP7−/− littermates was isolated following standard procedures from 6-12-weeks-old mice. Lineage-depletion was performed using Streptavidin Particles Plus-DM (BD Biosciences, Heidelberg, Germany) and a DynaMag magnet (Thermo Fisher Scientific). Lineage-depleted cells were stained with streptavidin BV421, KIT AF647 and Sca-1 FITC or PE antibodies (all antibodies were received from Biolegend, San Diego, CA, USA) and then used for cell sorting. Sorted LSK cells were pre-stimulated on RetroNectin-coated plates (Takara Bio USA, Inc., Mountain View, CA, USA) in serum-free medium (StemSpan™ SFEM, StemCell Technologies, Vancouver, Canada) supplemented with SCF, TPO, IL-3 and IL-6 (all cytokines from PeproTech, Hamburg, Germany) overnight. 20 hours after stimulation, LSK cells were infected twice (8 hours gap) by spinfection (872 g, 1.5 hours, 33° C.) with retroviral particles containing the oncogenic vectors. Cells were analyzed 48 hours after first infection for GFP-expression using flow cytometry and 7.5×10^4 GFP+ cells were injected into sublethally irradiated (7 Gy, single dose) primary recipient mice (C57BL/6J; females). For serial transplantation of leukemia, 3×10^5 whole bone marrow cells of diseased animals were transplanted into secondary C57BL/6J recipient mice (sublethal irradiation, 7 Gy, single dose). […]
# To characterize the effects of LMP7/PSMB8 inhibition in more detail, differentiation following PR-957 treatment was assessed. […]
# [1] = test system: MLL-rearranged murine leukemic cells; experiment: Methylcellulose colony-forming assay, MLL-rearranged murine leukemic cells; assay type: cell-based, mouse
# Protocol: Primary mouse bone marrow (BM) cells (transduced with MLL-AF9/KRAS, MLL-AF6, or AML1-ETO/KRAS) were seeded in MethoCult GF M3434 (StemCell Technologies) at a concentration of 1×10^3 cells/replicate. Colonies propagated in culture were scored at day 8. For re-plating of primary mouse BM cells, colonies were harvested from the methylcellulose medium, washed with PBS/1% FBS and seeded again at a concentration of 1×10^3 cells/replicate. MOLM-13 or ML-2 cells infected with either control or PSMB8/LMP7-specific shRNAs were plated at a concentration of 1×10^3 cells in MethoCult H4230 (StemCell Technologies) supplemented with 20% FBS and colony numbers were counted on day 10-14.
structure (smiles),measurement,setting,value
"COc1ccc(C[C@H](NC(=O)[C@H](C)NC(=O)CN2CCOCC2)C(=O)N[C@@H](Cc2ccccc2)C(=O)[C@]2(C)CO2)cc1 [PR-957, (2S)-3-(4-methoxyphenyl)-N-[(2S)-1-[(2S)-2-methyloxiran-2-yl]-1-oxo-3-phenylpropan-2-yl]-2-[[(2S)-2-[(2-morpholin-4-ylacetyl)amino]propanoyl]amino]propanamide]",leukemic cells in the peripheral blood and spleen size,"MLL-AF9 driven leukemia; 6 mg/kg i.v. QD 3 weeks (5 days per week), 3 days after discontinuation, vs diluent, FIG. 2B,C",reduced compared to diluent treated controls
same,abundance of leukemic cells in the bone marrow,"MLL-AF9 driven leukemia; 6 mg/kg i.v. QD 3 weeks (5 days per week), control 69.8%, FIG. 2D",42.9%
same,frequency of L-GMP populations,"MLL-AF9 driven leukemia; 6 mg/kg i.v. QD 3 weeks, diluent control 3.57+/-0.52%, p=0.0087, FIG. 2E",2.25+/−0.8%
same,colony size and shape,[1]; MLL-AF9 transformed leukemia,reduction of colony size and changes in colony shape
same,clonogenic potential (colony counts),"[1]; nanomolar concentrations (100 nM or 200 nM), serial replating, FIG. 2A",profound dose dependent reduction of clonogenic potential
